Columns and labels:
[1] = tested on: 3T3-L1 adipocytes; experiment: Basal glucose uptake in 3T3-L1 adipocytes (14C-2-deoxyglucose); format: cell-based; settings: 1.0 μM, 72 hours treatment, 10 minutes uptake without insulin, vs 0.1% DMSO
Experimental: Referring to FIG. 1, 3T3-L1 fibroblasts were differentiated to adipocytes by a cocktail containing insulin, dexamethasone and IBMX for four days. Fully differentiated adipocytes were treated with the compounds (1.0 μM concentrations) or 0.1% DMSO for 72 hours and then glucose uptake was carried out for 10 minutes without any addition of insulin. Basal uptake was initiated by addition of radioactive ^14C-2-deoxyglucose and after 10 minutes they were washed with cold PBS mixed with cold glucose. At the end, the cells were solubilized with 0.1% SDS and counted in a Beckman scintillation counter.

[2] = tested on: 3T3-L1 fibroblasts; experiment: Adipogenesis in 3T3-L1 fibroblasts (Oil-red-O staining); format: cell-based; settings: stained on day 11, rosiglitazone 10 μM positive control
Experimental: All known PPAR-γ agonists (both TZD or non-TZDs) induce differentiation in the fibroblast cells. The adipogenic potential of these compounds are correlated with their affinity to this receptor. Referring to FIG. 3, to check whether the Compounds 1 and 2 have any affinity to these receptors, 3T3-L1 fibroblasts were treated with either DMSO control or rosiglitazone (all at 10 μM concentrations) as positive control or these two compounds for several days at different concentrations. On day 11th, the differentiated adipocytes were stained with Oil-red-O (Sigma) and washed thoroughly to remove the unbound stain. The stained differentiated adipocytes were visualized under high-resolution microscope.

[3] = tested on: db/db mice; experiment: Serum cholesterol in db/db mice; format: in vivo; settings: 50 mg/kg once daily for 14 days
Experimental: Referring to FIG. 6, db/db mice (6-8 weeks old) were treated with Compound 2 (50 mg/kg) once daily for 14 days. At the end of the study serum cholesterol was measured by a calorimetric method.

[4] = tested on: TNFα; experiment: TNFα inhibition in LPS-challenged human PBMC (ELISA); format: cell-based; settings: 10 μM, LPS 100 ng/mL for 20 hours
Experimental: Referring to FIG. 7, human PBMC cells were cultured and incubated with Compound 1 and 2 at 10 μM concentration. Cells (1×10^6/mL) were challenged with lipopolysaccharides (LPS) at a concentration of (100 ng/mL) for 20 hours. TNF was measured by ELISA.

[5] = tested on: LPS-induced NO production; experiment: Inhibition of LPS-induced NO production in RAW 264.7 macrophages (Griess nitrite); format: cell-based, mouse; settings: RAW 264.7, 30 μM, LPS 200 ng/mL + IFN-γ 10 U/mL, 18 hours
Experimental: Mouse macrophages (RAW 264.7) were plated in 6-well plate (2 million cells/well), and incubated at 37° C. with LPS (200 ng/mL+IFN-γ 10 U/mL) for 18 hours. Nitrite levels were measured by the Griess reagent. All of the compounds were tested at 30 μM concentrations.

[6] = tested on: human liver cells (HepG2); experiment: Cytotoxicity in HepG2 cells (MTS viability); settings: 24 hours, up to 100 μM
Experimental: To find the cytotoxic effect of this class of new thiazolidinedione compounds (TZD), they were incubated in HepG2 cells for 24 hours and then the viability was measured by colorimetric reactions with MTS.

[7] = tested on: db/db (spontaneous model) diabetic mice; experiment: Blood glucose lowering in db/db diabetic mice; format: in vivo; settings: oral, 50 mg/kg body weight, daily
Experimental: Referring to FIG. 4, ten week old male db/db (spontaneous model) diabetic mice were orally treated with compound 1 at a dose of 50 mg/kg body weight and blood glucose was monitored by one touch glucometer every day morning before the next dose.

[8] = tested on: db/db mice; experiment: Oral glucose tolerance in db/db mice; format: in vivo; settings: 50 mg/kg once daily for 14 days, oral glucose challenge 2 g/kg BW
Experimental: Referring to FIG. 5, db/db mice (6-8 weeks old) were treated with Compound 2 (50 mg/kg) once daily for 14 days. On day 14 the animals were fasted overnight and gavaged with Compound 2, one hour prior to oral glucose challenge (2 g/kg BW).

O=C(O)Cc1ccc(Oc2ccc(CC3SC(=O)NC3=O)cc2)cc1 (stereo not drawn) [Compound 1, {4-[4-(2,4-Dioxothiazolidin-5-ylmethyl)phenoxy]-phenyl}acetic acid]
basal glucose uptake [1]: induced glucose uptake over basal levels
adipogenesis (differentiation of fibroblasts, Oil-red-O) [2]: non-adipogenic
serum cholesterol [3]: serum cholesterol lowering effect
inhibition of pro-inflammatory cytokines (TNF by ELISA) [4]: inhibit major pro-inflammatory cytokines
inhibition of LPS-induced NO production (nitrite concentration) [5]: inhibition of LPS-induced NO production
cytotoxicity (viability by MTS) [6]: did not show any toxicity

{4-[4-(2,4-Dioxo-thiazolidin-5-ylmethyl)-phenoxy]-phenyl}-acetic acid disodium salt [Compound 2]
basal glucose uptake [1]: induced glucose uptake over basal levels
adipogenesis (differentiation of fibroblasts, Oil-red-O) [2]: non-adipogenic
blood glucose [7]: blood glucose lowering effect
glucose tolerance [8]: improvement in glucose tolerance
inhibition of pro-inflammatory cytokines (TNF by ELISA) [4]: inhibit major pro-inflammatory cytokines
inhibition of LPS-induced NO production (nitrite concentration) [5]: inhibition of LPS-induced NO production

Reference: US7781464B2, “Heterocyclic diphenyl ethers” (Bexel Pharmaceuticals, Inc., priority 2003, dated 2010)
